Assay results from US20260167623A1 (NIKANG THERAPEUTICS, INC., priority 2022, published 2026).

How the values were obtained:
CDK2 [1] = molecular target: T1, CDK2 (Homo sapiens, UniProt P24941); test: Inhibition of CDK2: phospho-Rb (S807/811) HTRF measurement in OVCAR3 cells, 24 h; assay type: cell-based; settings: 24 h compound treatment, read-out: pRB_OVCAR3_24h
T1 construct: High-Throughput Measurement of Cellular Endogenous CDK2; endogenous in cells; host or cells: OVCAR3
Summary of the method: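 OVCAR3 cells, seeded overnight, were exposed to compounds at 0.3 to 10,000 nM for 24 h, then lysed. Rb S807/811 phosphorylation read by HTRF (665/620 nm ratio) after 4 h detection at room temperature; data normalized to DMSO and IC50 from four-parameter logistic fit.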

CDK2 [2] = molecular target: T1, CDK2; test: High-throughput HTRF measurement of cellular endogenous CDK2 level (degradation, DC50/Dmax) in OVCAR3 cells, 6 h; assay type: cell-based; settings: 6 h compound treatment, HTRF total CDK2, read-out: DC50_OVCAR3_6h
Procedure: High-Throughput Measurement of Cellular Endogenous CDK2
Effects of compounds on cellular CDK2 level were monitored by a high-throughput HTRF assay.
To determine half maximal degradation concentration (DC50) and maximum degradation level (Dmax) values of compounds, cellular CDK2 level was measured in 96-well format using HTRF total CDK2 cellular kit (Cat #64CDK2TPEG) from Cisbio.
On Day 1, OVCAR3 cells were seeded into 96-well tissue-culture treated plates at 20,000 cells/well in 200 μL and incubated overnight at 37° C. in CO2 atmosphere. On Day 2 cells were treated with compounds at concentration ranging from 0.03 to 1,000 nM using HP D300 digital dispenser. 6 hours after compound treatment, cell culture media was removed by flicking the plate and tapping the plate against clean paper towel. Immediately 30 μL 1× lysis buffer was supplemented from the kit and added to each well and the plate is incubated at room temperature on shaker for 30 min. After homogenization by pipetting up and down, 8 μL cell lysate from 96-well cell culture plate was transferred to 384-well small volume white detection plate. 2 μL premixed detection solution was added and the plate is covered with sealer. To prepare the detection solution, d2 conjugated-CDK2 antibody and Eu-cryptate conjugated CDK2 antibody were diluted into detection buffer following manufacturer's instruction. Detection plates were incubated overnight at room temperature and read on ClarioStar (BMG Labtech) in TR-FRET mode (665 nM and 620 nM). The TR-FRET ratio (665 nM/620 nM) was plotted against the compound concentration and normalized to DMSO controls (0% degradation) and lysis buffer controls (100% degradation). Half maximal degradation concentration (DC 50) […] were calculated with a four-parameter logistic fit using GraphPad Prism (version 8; La Jolla, CA).
In the table below, AA indicates a DC50 of greater than or equal to 0.5 nM but less than 1 nM; A indicates a DC50 of greater than or equal to 1 nM but less than or equal to 10 nM; B indicates a DC50 of greater than 10 nM but less than or equal to 100 nM; C indicates a DC50 of greater than 100 nM but less than or equal to 1 μM; and D indicates a DC50 of greater than 1 μM […] but less than or equal to 5 μM. NT means not tested.

Row | IC50 (CDK2 [1]) [nM] | DC50 (CDK2 [2]) [nM] | Compound
1 | 1 to 100 | 1 to 10 | O=C1CCN(c2noc3cc(C4CCN(CC5CCN(c6cccc(S(=O)(=O)N7CCC(Nc8ncc(Cl)cn8)CC7)c6)CC5)CC4)ccc23)C(=O)N1 [Example 221, 1-(6-(1-((1-(3-((4-((5-chloropyrimidin-2-yl)amino)piperidin-1-yl)sulfonyl)phenyl)piperidin-4-yl)methyl)piperidin-4-yl)benzo[d]isoxazol-3-yl)dihydropyrimidine-2,4(1H,3H)-dione]
2 | 1 to 100 | 10 to 100 | Cn1c(=O)n(C2CCC(=O)NC2=O)c2ccc(F)c(C3CCN(CC4CCN(c5cc(S(=O)(=O)N6CCC(Nc7ncc(Cl)cn7)CC6)ccc5C#N)CC4)CC3)c21 (centres unmarked) [Example 216, 4-((4-((5-chloropyrimidin-2-yl)amino)piperidin-1-yl)sulfonyl)-2-(4-((4-(1-(2,6-dioxopiperidin-3-yl)-5-fluoro-3-methyl-2-oxo-2,3-dihydro-1H-benzo[d]imidazol-4-yl)piperidin-1-yl)methyl)piperidin-1-yl)benzonitrile]
3 | 1 to 100 | 10 to 100 | Cn1c(=O)n(C2CCC(=O)NC2=O)c2cc(F)cc(C3CCN(CC4CCN(c5cc(S(=O)(=O)N6CCC(Nc7ncc(Cl)cn7)CC6)ccc5C#N)CC4)CC3)c21 (centres unmarked) [Example 209, 4-((4-((5-chloropyrimidin-2-yl)amino)piperidin-1-yl)sulfonyl)-2-(4-((4-(1-(2,6-dioxopiperidin-3-yl)-6-fluoro-3-methyl-2-oxo-2,3-dihydro-1H-benzo[d]imidazol-4-yl)piperidin-1-yl)methyl)piperidin-1-yl)benzonitrile]
4 | 1 to 100 | 10 to 100 | Cn1nc(N2CCC(=O)NC2=O)c2ccc(C3CCN(CC4CCN(c5ccc(S(=O)(=O)N6CCC(Nc7ncc(C(F)(F)F)cn7)CC6)cc5)CC4)CC3)cc21 [Example 165, 1-(1-methyl-6-(1-((1-(4-((4-((5-(trifluoromethyl)pyrimidin-2-yl)amino)piperidin-1-yl)sulfonyl)phenyl)piperidin-4-yl)methyl)piperidin-4-yl)-1H-indazol-3-yl)dihydropyrimidine-2,4(1H,3H)-dione]
5 | 1 to 100 | 1 to 10 | Cn1c(=O)n(C2CCC(=O)NC2=O)c2cccc(C3CCN(Cc4cc(F)cc(S(=O)(=O)N5CCC(Nc6ncc(OC(F)F)cn6)CC5)c4)CC3)c21 (centres unmarked) [Example 184, 3-(4-(1-(3-((4-((5-(difluoromethoxy)pyrimidin-2-yl)amino)piperidin-1-yl)sulfonyl)-5-fluorobenzyl)piperidin-4-yl)-3-methyl-2-oxo-2,3-dihydro-1H-benzo[d]imidazol-1-yl)piperidine-2,6-dione]
6 | 100 to 500 | 10 to 100 | Cn1nc(N2CCC(=O)NC2=O)c2ccc(C3CCN(Cc4cccc(S(=O)(=O)N5CCC(Nc6ncc(Cl)cn6)CC5)c4)CC3(F)F)cc21 (centres unmarked) [Example 33, 1-(6-(1-(3-((4-((5-chloropyrimidin-2-yl)amino)piperidin-1-yl)sulfonyl)benzyl)-3,3-difluoropiperidin-4-yl)-1-methyl-1H-indazol-3-yl)dihydropyrimidine-2,4(1H,3H)-dione]
7 | 100 to 500 | 100 to 1000 | Cc1ncsc1-c1ccc([C@H](C)NC(=O)[C@@H]2C[C@@H](O)CN2C(=O)[C@H](NC(=O)C2CCN(Cc3cccc(S(=O)(=O)N4CCC(Nc5ncc(C(F)(F)F)cn5)CC4)c3)CC2)C(C)(C)C)cc1 [Example 7, N-((R)-1-((2S,4R)-4-hydroxy-2-(((S)-1-(4-(4-methylthiazol-5-yl)phenyl)ethyl)-carbamoyl)pyrrolidin-1-yl)-3,3-dimethyl-1-oxobutan-2-yl)-1-(3-((4-((5-(trifluoro-methyl)pyrimidin-2-yl)amino)piperidin-1-yl)sulfonyl)benzyl) piperidine-4-carboxamide]
8 | 100 to 500 | 10 to 100 | O=C1CCN(c2nn(CC(F)(F)F)c3cc(C4CCN(CC5CCN(c6cccc(S(=O)(=O)N7CCC(Nc8ncc(C(F)(F)F)cn8)CC7)c6)CC5)CC4)ccc23)C(=O)N1 [Example 91, 1-(1-(2,2,2-trifluoroethyl)-6-(1-((1-(3-((4-((5-(trifluoromethyl)pyrimidin-2-yl)amino)piperidin-1-yl)sulfonyl)phenyl)-piperidin-4-yl)methyl)piperidin-4-yl)-1H-indazol-3-yl)dihydropyrimidine-2,4(1H,3H)-dione]
9 | 100 to 500 | 1 to 10 | C=Cc1cnc(NC2CCN(S(=O)(=O)c3cccc(CN4CCC(c5ccc6c(N7CCC(=O)NC7=O)nn(C)c6c5)CC4)c3)CC2)nc1 [Example 58, 1-(1-methyl-6-(1-(3-((4-((5-vinylpyrimidin-2-yl)amino)piperidin-1-yl)sulfonyl)benzyl)-piperidin-4-yl)-1H-indazol-3-yl)dihydropyrimidine-2,4(1H,3H)-dione]
10 | 1 to 100 | 10 to 100 | CCc1cnc(NC2CCN(S(=O)(=O)c3cccc(CN4CCC(c5ccc6c(N7CCC(=O)NC7=O)nn(C)c6c5)CC4)c3)CC2)nc1 [Example 61, 1-(6-(1-(3-((4-((5-ethylpyrimidin-2-yl)amino)piperidin-1-yl)sulfonyl)benzyl)-piperidin-4-yl)-1-methyl-1H-indazol-3-yl)dihydropyrimidine-2,4(1H,3H)-dione]
11 | 100 to 500 | 10 to 100 | Cn1nc(N2CCC(=S)NC2=O)c2ccc(C3CCN(CC4CCN(c5cccc(S(=O)(=O)N6CCC(Nc7ncc(Cl)cn7)CC6)c5)CC4)CC3)cc21 [Example 239, 1-(6-(1-((1-(3-((4-((5-chloropyrimidin-2-yl)amino)piperidin-1-yl)sulfonyl)phenyl)piperidin-4-yl)methyl)piperidin-4-yl)-1-methyl-1H-indazol-3-yl)-4-thioxotetrahydropyrimidin-2(1H)-one]
12 | 1 to 100 | 1 to 10 | Cn1nc(N2CCC(=O)NC2=O)c2ccc(C3CCN(CC4CCN(c5cccc(S(=O)(=O)N6CCC(Nc7ncc(C(F)(F)F)cn7)CC6)c5)CC4)CC3)cc21 [Example 40, 1-(1-methyl-6-(1-((1-(3-((4-((5-(trifluoro-methyl)pyrimidin-2-yl)amino)piperidin-1-yl)sulfonyl)phenyl)piperidin-4-yl)methyl)piperidin-4-yl)-1H-indazol-3-yl)dihydropyrimidine-2,4(1H,3H)-dione]
13 | 1 to 100 | 1 to 10 | Cn1nc(N2CCC(=O)NC2=O)c2ccc(C3CCN(CC4CCN(c5cc(F)cc(S(=O)(=O)N6CCC(Nc7ncc(C(F)(F)F)cn7)CC6)c5)CC4)CC3)cc21 [Example 149, 1-(6-(1-((1-(3-fluoro-5-((4-((5-(trifluoromethyl)pyrimidin-2-yl)amino)piperidin-1-yl)sulfonyl)phenyl)piperidin-4-yl)methyl)piperidin-4-yl)-1-methyl-1H-indazol-3-yl)dihydropyrimidine-2,4(1H,3H)-dione]
14 | 1 to 100 | 1 to 10 | Cn1nc(N2CCC(=O)NC2=O)c2ccc(C3CCN(Cc4cccc(S(=O)(=O)N5CCC(Nc6ncc(C(F)(F)F)cn6)CC5)c4)CC3)cc21 [Example 1]
15 | 1 to 100 | 10 to 100 | Cn1c(=O)n(C2CCC(=O)NC2=O)c2cccc(N3CCN(CC4CCN(c5cc(S(=O)(=O)N6CCC(Nc7ncc(C(F)(F)F)cn7)CC6)ccc5C#N)CC4)CC3)c21 (centres unmarked) [Example 217, 2-(4-((4-(1-(2,6-dioxopiperidin-3-yl)-3-methyl-2-oxo-2,3-dihydro-1H-benzo[d]imidazol-4-yl)piperazin-1-yl)methyl)piperidin-1-yl)-4-((4-((5-(trifluoromethyl)pyrimidin-2-yl)amino)piperidin-1-yl)sulfonyl)benzonitrile]
16 | 1 to 100 | 10 to 100 | Cn1cc(C2CCC(=O)NC2=O)c2ccc(C3CCN(CC4CCN(c5cccc(S(=O)(=O)N6CCC(Nc7ncc(C(F)(F)F)cn7)CC6)c5)CC4)CC3)cc21 (centres unmarked) [Example 251, 3-(1-methyl-6-(1-((1-(3-((4-((5-(trifluoromethyl)pyrimidin-2-yl)amino)piperidin-1-yl)sulfonyl)phenyl)piperidin-4-yl)methyl)piperidin-4-yl)-1H-indol-3-yl)piperidine-2,6-dione]
